{"source": "patent US20070178494A1", "about": "“Methods for prediction and prognosis of cancer, and monitoring cancer therapy” (priority 2005, published 2007)", "key": {"VEGF": {"test_system": "VEGF", "experiment": "ELISA of plasma VEGF pre- and post-treatment, Phase III TARGETs study", "assay_type": "in vivo, human", "details": "patients with advanced renal cell cancer, after 3 weeks of treatment, p=3.2E-5"}, "[1]": {"test_system": "advanced renal cell cancer", "experiment": "Progression-free survival by baseline VEGF level, Phase III TARGETs study", "assay_type": "in vivo, human", "details": "patients receiving sorafenib", "description": "All analyses were carried out under IRB-approved protocols.\nMeasures of patient outcome found useful were time to death (TTD) and progression-free survival (PFS) using a Cox regression analysis. Baseline levels of VEGF were determined and changes in the baseline level were determined at week 18 of treatment. The effects observed were adjusted for age, gender, ECOG status or Motzer score. These adjustments were minimal."}}}
{"smiles": "CNC(=O)c1cc(Oc2ccc(NC(=O)Nc3ccc(Cl)c(C(F)(F)F)c3)cc2)ccn1", "note": "[sorafenib]", "values": [{"measurement": "change of VEGF levels from baseline", "setting": "VEGF", "result": "increased significantly"}, {"measurement": "difference in PFS between patients with high (>250 pg/mL) or low (<250 pg/mL) baseline VEGF levels", "setting": "[1]", "result": "no significant difference"}]}
